In ChEMBL document CHEMBL6114969, “Ultra-short lipopeptides containing d-amino acid exhibiting excellent stability and antibacterial activity against gram-positive bacteria” (Eur J Med Chem, 2025):
Values after ≈ are worked out from the molar mass of the structure shown. Active and inactive are the calls of the source. The rule behind the calls is not given here. Where a SMILES comes first, the peptide text is derived from it. Bridges are numbered along the chain shown (N, C = ends). [ ]: non-standard residue; d: D form. The star is where a group is joined. X1 = CC[C@H](C)CCCCC(=O)*; dDab = NCC[C@@H](N)C(=O)O; Dab = NCC[C@H](N)C(=O)O

Columns and labels:
[1] = Toxicity in Balb/c mouse assessed as change in liver co-efficient at 20 mg/kg, ip measured after 7 days; type: organism-based; conditions: in vivo, 168 h, time 7 day
[2] = Toxicity in Balb/c mouse assessed as spleen atrophy at 20 mg/kg, ip measured after 7 days; type: organism-based; conditions: in vivo, 168 h, time 7 day
[3] = Toxicity in Balb/c mouse assessed as kidney atrophy at 20 mg/kg, ip measured after 7 days; type: organism-based; conditions: in vivo, 168 h, time 7 day
[4] = Toxicity in Balb/c mouse assessed as spleen pigmentation at 20 mg/kg, ip measured after 7 days; type: organism-based; conditions: in vivo, 168 h, time 7 day
[5] = Toxicity in Balb/c mouse assessed as kidney pigmentation at 20 mg/kg, ip measured after 7 days; type: organism-based; conditions: in vivo, 168 h, time 7 day
[6] = Toxicity in Balb/c mouse assessed as change in serum ALT level at 20 mg/kg, ip measured after 7 days; type: organism-based; conditions: in vivo, 168 h, time 7 day
[7] = Toxicity in Balb/c mouse assessed as change in serum AST level at 20 mg/kg, ip measured after 7 days; type: organism-based; conditions: in vivo, 168 h, time 7 day
[8] = Toxicity in Balb/c mouse assessed as change in serum BUN level at 20 mg/kg, ip measured after 7 days; type: organism-based; conditions: in vivo, 168 h, time 7 day
[9] = Toxicity in Balb/c mouse assessed as change in serum CREA level at 20 mg/kg, ip measured after 7 days; type: organism-based; conditions: in vivo, 168 h, time 7 day
[10] = Toxicity in Balb/c mouse assessed as cell swelling in kidney at 20 mg/kg, ip measured after 7 days by H and E staining based analysis; type: organism-based; conditions: in vivo, 168 h, time 7 day
[11] = Toxicity in Balb/c mouse assessed as inflammatory cell infiltration in kidney at 20 mg/kg, ip measured after 7 days by H and E staining based analysis; type: organism-based; conditions: in vivo, 168 h, time 7 day
[12] = Toxicity in Balb/c mouse assessed as cell swelling in liver at 20 mg/kg, ip measured after 7 days by H and E staining based analysis; type: organism-based; conditions: in vivo, 168 h, time 7 day
[13] = Toxicity in Balb/c mouse assessed as inflammatory cell infiltration in liver at 20 mg/kg, ip measured after 7 days by H and E staining based analysis; type: organism-based; conditions: in vivo, 168 h, time 7 day
[14] = Toxicity in Balb/c mouse assessed as cell swelling in lung at 20 mg/kg, ip measured after 7 days by H and E staining based analysis; type: organism-based; conditions: in vivo, 168 h, time 7 day
[15] = Toxicity in Balb/c mouse assessed as cell swelling in spleen at 20 mg/kg, ip measured after 7 days by H and E staining based analysis; type: organism-based; conditions: in vivo, 168 h, time 7 day
[16] = tested on: Staphylococcus aureus; experiment: Antibacterial activity against Staphylococcus aureus ATCC 25923 incubated for 18 to 24 hrs by broth microdilution method; type: functional; conditions: time 18-24 hrs
[17] = tested on: Staphylococcus aureus; experiment: Antibacterial activity against Staphylococcus aureus ATCC 29213 incubated for 18 to 24 hrs by broth microdilution method; type: functional; conditions: time 18-24 hrs
[18] = tested on: Staphylococcus aureus; experiment: Antibacterial activity against methicillin-resistant Staphylococcus aureus ATCC 33591 incubated for 18 to 24 hrs by broth microdilution method; type: functional; conditions: time 18-24 hrs
[19] = tested on: Staphylococcus epidermidis; experiment: Antibacterial activity against Staphylococcus epidermidis ATCC 12228 incubated for 18 to 24 hrs by broth microdilution method; type: functional; conditions: time 18-24 hrs
[20] = tested on: Enterococcus faecalis; experiment: Antibacterial activity against Enterococcus faecalis ATCC 29212 incubated for 18 to 24 hrs by broth microdilution method; type: functional; conditions: time 18-24 hrs
[21] = tested on: Staphylococcus aureus; experiment: Induction of drug resistance in methicillin-resistant Staphylococcus aureus ATCC 33591 assessed as fold increase in MIC at sub-MIC measured after 14 passages relative to control; type: functional
[22] = tested on: Staphylococcus aureus; experiment: Induction of drug resistance in Staphylococcus aureus ATCC 25923 at sub-MIC measured after 2 passages; type: functional, organism-based
[23] = tested on: Staphylococcus aureus; experiment: Induction of drug resistance in Staphylococcus aureus ATCC 25923 assessed as fold increase in MIC at sub-MIC measured after 10 passages relative to control; type: functional
[24] = tested on: Staphylococcus aureus; experiment: Antibacterial activity against methicillin-resistant Staphylococcus aureus ATCC 33591 infected in Balb/c mouse model of acute systemic infection at 10 mg/kg, ip measured after 5 days; type: functional, organism-based; conditions: time 5.0 day
[25] = tested on: Staphylococcus aureus; experiment: Antibacterial activity against methicillin-resistant Staphylococcus aureus ATCC 33591 infected in Balb/c mouse model of pneumonia infection assessed as reduction in bacterial load in lung at 10 mg/kg, ip administered thrice at 4, 8 and 12 hrs post-infection measured after 24 hrs post-infection; type: functional, organism-based; conditions: time 20.0 hrs
[26] = tested on: Staphylococcus aureus; experiment: (§1) Antibacterial activity against methicillin-resistant Staphylococcus aureus ATCC 33591 infected in Balb/c mouse model of pneumonia infection assessed as reduction in inflammatory cell infiltration in lung at 10 mg/kg, ip administered thrice at 4, 8 and 12 hrs post-infection measured after 24 hrs post-infection by H and E staining based analysis; type: functional, organism-based; conditions: time 20.0 hrs
[27] = tested on: Staphylococcus aureus; experiment: as §1, with “bleeding” for “inflammatory cell infiltration”; type: functional, organism-based; conditions: time 20.0 hrs
[28] = tested on: Staphylococcus aureus; experiment: as §1, with “alveolar contraction” for “inflammatory cell infiltration”; type: functional, organism-based
[29] = tested on: Staphylococcus aureus; experiment: (§2) Antibacterial activity against methicillin-resistant Staphylococcus aureus ATCC 33591 infected in Balb/c mouse model of pneumonia infection assessed as reduction in TNF-alpha activity in lung at 10 mg/kg, ip administered thrice at 4, 8 and 12 hrs post-infection measured after 24 hrs post-infection by IHC analysis; type: functional, organism-based; conditions: time 20.0 hrs
[30] = tested on: Staphylococcus aureus; experiment: as §2, with “IL-1beta” for “TNF-alpha”; type: functional, organism-based; conditions: time 20.0 hrs
[31] = tested on: Staphylococcus aureus; experiment: (§3) Antibacterial activity against methicillin-resistant Staphylococcus aureus ATCC 33591 infected in Balb/c mouse model of skin wound infection assessed as reduction in bacterial load in skin at 10 mg/kg, ip administered thrice at 1, 24 and 48 hrs post-infection measured after 72 hrs post-infection; type: functional, organism-based; conditions: time 71.0 hrs
[32] = tested on: Staphylococcus aureus; experiment: as §1, with “skin wound” for “pneumonia”, “skin” for “lung”, “1, 24” for “4, 8”, “48” for “12”, “14 days” for “24 hrs post-infection”; type: functional, organism-based; conditions: time 14.0 day
[33] = tested on: Staphylococcus aureus; experiment: as §3, with “TNF-alpha activity” for “bacterial load”, “14 days by IHC analysis” for “72 hrs post-infection”; type: functional, organism-based; conditions: time 14.0 day
[34] = tested on: Staphylococcus aureus; experiment: as §3, with “IL-1beta activity” for “bacterial load”, “14 days by IHC analysis” for “72 hrs post-infection”; type: functional, organism-based; conditions: time 14.0 day
[35] = tested on: Staphylococcus aureus; experiment: as §3, with “in keratosis” for “in bacterial load”, “in wound surface” for “in skin”, “after 14 days by IHC analysis” for “after 72 hrs post-infection”; type: functional, organism-based; conditions: time 14.0 day
[36] = tested on: Staphylococcus aureus; experiment: Induction of drug resistance in methicillin-resistant Staphylococcus aureus ATCC 33591 at sub-MIC measured after 4 passages; type: functional, organism-based
[37] = tested on: Staphylococcus aureus; experiment: Induction of drug resistance in methicillin-resistant Staphylococcus aureus ATCC 33591 assessed as fold increase in MIC at sub-MIC measured after 8 passages relative to control; type: functional
[38] = tested on: Staphylococcus aureus; experiment: Induction of drug resistance in Staphylococcus aureus ATCC 25923 assessed as fold increase in MIC at sub-MIC measured after 7 passages relative to control; type: functional
[39] = tested on: Staphylococcus aureus; experiment: Antibacterial activity against drug-resistant Staphylococcus aureus ATCC 25923 incubated for 18 to 24 hrs; type: functional; conditions: time 18-24 hrs
[40] = tested on: Staphylococcus aureus; experiment: Antibacterial activity against ciprofloxacin-resistant Staphylococcus aureus ATCC 25923 incubated for 18 to 24 hrs; type: functional; conditions: time 18-24 hrs
[41] = tested on: Staphylococcus aureus; experiment: Antibacterial activity against polymyxin B-resistant Staphylococcus aureus ATCC 25923 incubated for 18 to 24 hrs; type: functional; conditions: time 18-24 hrs
[42] = tested on: Staphylococcus aureus; experiment: Antibacterial activity against drug-resistant methicillin-resistant Staphylococcus aureus ATCC 33591 incubated for 18 to 24 hrs; type: functional; conditions: time 18-24 hrs
[43] = tested on: Staphylococcus aureus; experiment: Antibacterial activity against ciprofloxacin-resistant methicillin-resistant Staphylococcus aureus ATCC 33591 incubated for 18 to 24 hrs; type: functional; conditions: time 18-24 hrs
[44] = tested on: Staphylococcus aureus; experiment: Antibacterial activity against polymyxin B-resistant methicillin-resistant Staphylococcus aureus ATCC 33591 incubated for 18 to 24 hrs; type: functional; conditions: time 18-24 hrs

Compound: CC(C)CCCCC(=O)N[C@@H](CCN)C(=O)N[C@H](C(=O)N[C@@H](CCN)C(=O)N[C@H]1CCNC(=O)[C@H]([C@@H](C)O)NC(=O)[C@H](CCN)NC(=O)[C@H](CCN)NC(=O)[C@H](CC(C)C)NC(=O)[C@@H](Cc2ccccc2)NC(=O)[C@H](CCN)NC1=O)[C@@H](C)O.CC[C@H](C)CCCCC(=O)N[C@@H](CCN)C(=O)N[C@H](C(=O)N[C@@H](CCN)C(=O)N[C@H]1CCNC(=O)[C@H]([C@@H](C)O)NC(=O)[C@H](CCN)NC(=O)[C@H](CCN)NC(=O)[C@H](CC(C)C)NC(=O)[C@@H](Cc2ccccc2)NC(=O)[C@H](CCN)NC1=O)[C@@H](C)O (X1-[Dab]T[Dab][Dab][Dab][dF]L[Dab][Dab]T; lactam 4-C)
- Activity [1]: Toxic
- Activity [2]: Toxic
- Activity [3]: Toxic
- Activity [4]: Toxic
- Activity [5]: Toxic
- Activity [6]: Non-toxic
- Activity [7]: Non-toxic
- Activity [8]: Non-toxic
- Activity [9]: Toxic
- Activity [10]: Toxic
- Activity [11]: Toxic
- Activity [12]: Toxic
- Activity [13]: Toxic
- Activity [14]: Toxic
- Activity [15]: Toxic

Compound: C[C@@H](O)[C@H]1C(=O)N2C(C(=O)O)=C(SCCNC=N)C[C@H]12 [IMIPENEM ANHYDROUS]
- MIC [16]: 4 µM (≈ 1.2 µg/mL)
- MIC [17]: 2 µM (≈ 0.599 µg/mL)
- MIC [18]: 32 µM (≈ 9.58 µg/mL)
- MIC [19]: 4 µM (≈ 1.2 µg/mL)
- MIC [20]: 2 µM (≈ 0.599 µg/mL)
- fold change (FC) [21]: 64
- Activity [22]: Active
- fold change (FC) [23]: 2048

Compound: CC(C)CCCCC(=O)N[C@@H](CCN)C(=O)N[C@H](C(=O)N[C@@H](CCN)C(=O)N[C@H]1CCNC(=O)[C@H]([C@@H](C)O)NC(=O)[C@H](CCN)NC(=O)[C@H](CCN)NC(=O)[C@H](CC(C)C)NC(=O)[C@@H](Cc2ccccc2)NC(=O)[C@@H](CCN)NC1=O)[C@@H](C)O.CC[C@H](C)CCCCC(=O)N[C@@H](CCN)C(=O)N[C@H](C(=O)N[C@@H](CCN)C(=O)N[C@H]1CCNC(=O)[C@H]([C@@H](C)O)NC(=O)[C@H](CCN)NC(=O)[C@H](CCN)NC(=O)[C@H](CC(C)C)NC(=O)[C@@H](Cc2ccccc2)NC(=O)[C@@H](CCN)NC1=O)[C@@H](C)O (X1-[Dab]T[Dab][Dab][dDab][dF]L[Dab][Dab]T; lactam 4-C)
- Activity [24]: Active
- Activity [25]: Active
- Activity [26]: Active
- Activity [27]: Active
- Activity [28]: inactive
- Activity [29]: Active
- Activity [30]: Active
- Activity [31]: Active
- Activity [32]: Active
- Activity [33]: Active
- Activity [34]: Active
- Activity [35]: Active

Compound: CNC(C)[C@@H]1CC[C@@H](N)[C@@H](O[C@H]2[C@H](O)[C@@H](O[C@H]3OC[C@](C)(O)[C@H](NC)[C@H]3O)[C@H](N)C[C@@H]2N)O1.CN[C@@H]1[C@@H](O)[C@@H](O[C@@H]2[C@@H](O)[C@H](O[C@H]3O[C@H](C(C)N)CC[C@H]3N)[C@@H](N)C[C@H]2N)OC[C@]1(C)O.CN[C@@H]1[C@@H](O)[C@@H](O[C@@H]2[C@@H](O)[C@H](O[C@H]3O[C@H](CN)CC[C@H]3N)[C@@H](N)C[C@H]2N)OC[C@]1(C)O (stereo not given in full)
- MIC [16]: 16 µM
- MIC [17]: 16 µM
- MIC [18]: 128 µM
- MIC [19]: 1 µM
- MIC [20]: 16 µM
- Activity [36]: Active
- fold change (FC) [37]: 256
- Activity [22]: Active
- fold change (FC) [38]: 64
- MIC [39]: 128 µM
- MIC [40]: 128 µM
- MIC [41]: 128 µM
- MIC [42]: 128 µM
- MIC [43]: > 128 µM
- MIC [44]: > 128 µM
